Structures can show the parent of a compound that is named as a salt. Where two headings read alike, the source gives them in different places.

The target of one assay is gabapentin binding site. Description: Gabapentin binding assay (displacement of gabapentin from its binding site). The conditions noted are these: displacement of gabapentin, read-out: Affinity (IC50). The protocol: Gabapentin is used in the binding assay in order to determine the binding and affinities of the selected compounds. The affinity of the compounds according to the invention is measured via the displacement of gabapentin from its binding site.

The subject of assay [1] is formalin-induced nociception. Description: Formalin test on mice (second phase). The format is in vivo. The following applies: read-out: Mouse Formalin Test ED50. The procedure: The investigations to determine the antinociceptive action of the compounds according to the invention were carried out by the formalin test on male albino mice (NMRI, 25-35 g, Iffa Credo, Belgium).
In the formalin test the first (early) phase (0-15 minutes after the formalin injection) and the second (late) phase (15-60 minutes after the formalin injection) differ (D. Dubuisson et al., Pain, Vol. 4, pp. 161-174 (1977)). The early phase, being a direct reaction to the formalin injection, constitutes a model for acute pain, whereas the late phase is regarded as a model for persistent (chronic or inflammatory) pain (T. J. Coderre et al., Pain, Vol. 52, pp. 259-285 (1993)).
The compounds according to the invention were investigated in the second phase of the formalin test in order to obtain information on the effects of substances in chronic/inflammatory pain.
By means of a single subcutaneous formalin injection (20 μl, 1% aqueous solution) into the dorsal side of the right-hand rear paw, a nociceptive reaction was induced in unconstrained experimental animals, manifested in a noticeable licking and biting of the affected paw. The nociceptive behavior during the investigation period in the second (late) phase of the formalin test was continuously monitored by observing the animals. The pain reaction was quantified by totalling the time in seconds during which the animals continued to lick and bite the affected paw during the investigation period. After injecting substances that have an antinociceptive effect in the formalin test, the aforedescribed behavior pattern of the animals is reduced or possibly even eliminated. Corresponding to the substance tests, in which the animals had been injected with the test substance before formalin, the control animals were injected with a vehicle, i.e. solvent (e.g. 0.9% NaCl solution) before the formalin injection. The behavior of the animals after administration of the substance (n=10 per substance dose) was compared with a control group (n=10).
Based on the quantification of the pain reaction, the effect of the substance in the formalin test was determined as the change in the control in percentage terms. The ED50 calculations were carried out by means of regression analysis. The application time before the formalin injection (intraperitoneally: 15 minutes, intravenously: 5 minutes) was chosen depending on the type of application of the compounds according to the invention.

Assay [2] has as its system phenylquinone-induced writhing reactions. Description: Phenylquinone-induced writhing test in mice. In kind it is in vivo. The following applies: iv, read-out: Writhing Mouse i.v. ED50. The protocol:
The antinociceptive effectiveness of the compounds according to the invention was investigated in mice using the phenylquinone-induced writhing test as modified by I. C. Hendershot and J. Forsaith, J. Pharmacol. Exp. Ther. 125, 237-240 (1959)). Male NMRI mice weighing 25-30 g were used for this purpose. Groups of 10 animals per substance dose were given intraperitoneally 10 minutes after intravenous administration of a compound according to the invention, 0.3 ml/mouse of a 0.02% aqueous solution of phenylquinone (phenylbenzoquinone, from Sigma, Deisenhofen; solution prepared by addition of 5% of ethanol and storage in a water bath at 45° C.). The animals were placed individually in observation cages. The number of pain-induced stretching movements (so-called writhing reactions=contortion of the body accompanied by stretching of the rear extremities) 5-20 minutes after administration of the phenylquinone were counted using a push-button counter. Animals that had received physiological saline solution i.v. and phenylquinone […]. served as controls.
All substances were tested in the standard dose of 10 mg/kg.

The test system of a further assay is cold-induced allodynia. The assay is described as follows: Bennett model, neuropathic pain in rats (cold-induced allodynia). In kind it is in vivo. The conditions noted are these: rat; for AUD: over 1 hour, *** p≦0.001. The procedure:
The effectiveness in neuropathic pain was investigated using the Bennett model (Chronic Constriction Injury: Bennett and Xie, 1988, Pain 33: 87-107).
The right sciatic nerve of Sprague-Dawley rats weighing 140-160 g anaesthetised with nembutal was loosely ligatured in four places. The animals develop an hypersensitivity in the paw inervated by the damaged nerve, which after a one-week healing phase is quantified over about four weeks by means of a 4° C. cold metal plate (cold-induced allodynia). The animals are observed for a period of 2 minutes on this plate and the number of contractive reactions of the damaged paw is measured. The effect of the substance is determined at four times over a period of 1 hour (15, 30, 45 and 60 minutes after application) with reference to the baseline value before application of the substance and the resulting area under the curve (AUD) as well as the inhibition of the cold-induced allodynia at the individual measuring points is expressed as a percentage inhibition with respect to the vehicle control (AUD) and to the starting value (individual measurement points). The group size is n=10, and the significance of an anti-allodynic action is determined on the basis of the AUD values over a paired Test (* 0.05≧p>0.01; ** 0.01≧p>0.001; *** p≦0.001; Armitage and Berry, 1987, Stat. Methods in Medical Research, London: Blackwell Scientific Publications).

Assay [3] has as its system mechanical hyperalgesia after paw incision. Description: Mechanical hyperalgesia after paw incision in rats (paw incision model). In kind it is in vivo. The conditions noted are these: rat, 464 mg/kg i.p. The protocol:
In this model the wound pain in the tissue surrounding an incision in the plantar side of a rear rat paw is investigated as a model of post-operative pain (Brennan, T. J., Vandermeulen, E. P., Gebhart, G. F., Pain (1996) 493-501). For this purpose the retraction latency after punctiform mechanical stimulation with an electronic von Frey filament is determined. After the paw incision a mechanical hyperalgesia develops, which remains stable over several days.
Male Sprague Dawley rats (bodyweight 200-300 g) are used. Under halothane anaesthesia a 1 cm-long incision is made starting 0.5 cm from the proximal end of the heel, through the skin, fascia and plantaris muscle, and closed with two stitches.
The retraction threshold of the paw expressed in grams after punctiform mechanical stimulation is determined using an electronic von Frey filament (Digital Transducer Indicator Model 1601C, IITC Inc.). For this purpose the retraction threshold per measurement point is measured five times at intervals of 30 seconds and the individual median value is determined, on the basis of which the mean value of the animal cohort is in turn calculated. […]
In order to investigate primary hyperalgesia, the retraction threshold is determined on the ipsilateral paw in the immediate vicinity of the incision as well as in the same position on the contralateral paw. […]

Where [4] appears, read: mouse, i.v., 10 minutes before phenylquinone.

As for `CCCC(C)(S)C(N)C(=O)O.Cl` (racemic) [Compound 2, rac-2-amino-3-mercapto-3-methylhexanoic acid hydrochloride], the IC50 at gabapentin binding site was found to be 165 nM. Further, in assay [1] (iv, mouse, i.v., second phase), the ED50 is 158 mg/kg.

Take `CCCCCC(C)(S)C(N)C(=O)O.Cl` (racemic) [Compound 4, rac-2-amino-3-mercapto-3-methyloctanoic acid hydrochloride]: the median effective dose (ED50) stood at 12 mg/kg in assay [2] (setting [4]) and 67 mg/kg in assay [1] (iv, mouse, i.v., second phase). In addition, the IC50 at gabapentin binding site (hydrochloride) stood at 186 nM. Moreover, the entries for the “Change Compared to Control (%)” value in the assay with cold-induced allodynia (46.4 mg/kg i.p.) and in the assay with cold-induced allodynia (100 mg/kg i.p.) were 32.5% and 66.9%, respectively. Besides, the values for the AUD in the assay on cold-induced allodynia (46.4 mg/kg i.p.) and with cold-induced allodynia (100 mg/kg i.p.) were 1893.1 ± 284.6*** and 3603.1 ± 228.1***, respectively.

Turning to `CCCCCCC(C)(S)C(N)C(=O)O.Cl` (racemic) [Compound 5, rac-2-amino-3-mercapto-3-methylnonanoic acid hydrochloride], the IC50 at gabapentin binding site (hydrochloride) was determined as 70 nM. Also, the median effective dose (ED50) in assay [1] (ip, mouse, i.p., second phase) came to 54 mg/kg.

For the molecule `CCCCCCCC(C)(S)C(N)C(=O)O.Cl` (racemic) [Compound 6, rac-2-amino-3-mercapto-3-methyldecanoic acid hydrochloride], the 50% effective dose (ED50) amounted to 35 mg/kg in assay [2] (setting [4]) and 66 mg/kg in assay [1] (iv, mouse, i.v., second phase). At gabapentin binding site (hydrochloride), the IC50 turned out to be 199 nM. The “% MPE (Maximal Possible Effect)” value in assay [3] is 27% MPE (464 mg/kg) i.p.

On to `Cl.NC(C(=O)O)C1(S)CCCC1` (racemic) [Compound 8, rac-amino-(1-mercaptocyclopentyl)acetic acid hydrochloride], for which the ED50 in assay [2] (setting [4]) worked out at 70 mg/kg; in assay [1] (iv, mouse, i.v., second phase), 79 mg/kg. Moreover, the concentration for half-maximal inhibition (IC50) at gabapentin binding site was 151 nM.

With `CCCCCCCC(C)(S)C(N)C(=O)O.Cl` (racemic) [Compound 10, rac-threo-2-amino-3-mercapto-3-methyldecanoic acid hydrochloride], the IC50 on gabapentin binding site (hydrochloride) worked out at 150 nM. In assay [1] (ip, mouse, i.p., second phase), the ED50 is 105 mg/kg.

Turning to `CCCCCCC(C)(S)C(N)C(=O)O` (racemic) [Compound 12, rac-threo-2-amino-3-mercapto-3-methylnonanoic acid hydrochloride], the IC50 on gabapentin binding site (hydrochloride) worked out at 70 nM. The ED50 in assay [1] (ip, mouse, i.p., second phase) is 78 mg/kg.

For the molecule `NCC1(CC(=O)O)CCCCC1` [Gabapentin, gabapentin, reference compound], the ED50 was determined as 38 mg/kg in assay [2] (Mus musculus) and 79 mg/kg in assay [1] (Mus musculus). Besides, the results for the “Change Compared to Control (%)” value with cold-induced allodynia (100 mg/kg i.p.) and with cold-induced allodynia (464 mg/kg i.p.) were 34.5% and 47.3%, respectively. Besides, the AUD in the assay on cold-induced allodynia (100 mg/kg i.p.) is given as 1940.3 ± 139.7***; with cold-induced allodynia (464 mg/kg i.p.) it was 2577.8 ± 147.4***.

The term IC50 denotes the concentration that inhibits the measured activity by half. By ED50 is commonly meant the midpoint of the dose-response relation.

The values above are taken from patent US6846843B2, “β-thioamino acids” (Gruenenthal GmbH, priority 2000, dated 2005).
